Experimental data as given in publication PMC3221499, “A New Flavonoid C-Glycoside from Celtis australis L. and Celtis occidentalis L. Leaves and Potential Antioxidant and Cytotoxic Activities” (Scientia Pharmaceutica, 2011).

Experiments:
[1] = DPPH radical scavenging activity; details: samples at 100 μg/mL; 30 min at 30 °C; mean ± SE, n=3
Experimental: The ability of the extracts to scavenge free radicals was determined according to the method of Hosny, et al 2002 [24]. In a 96-well plate, 10 μL of each sample or standard dissolved in ethanol (100 μg/mL) was added to 190 μL of 316 μM/mL DPPH solution. A blank was prepared using ethanol. After incubation at 30 °C for 30 min, the absorbance of each solution was measured at 517 nm. DL-α-tocopherol and BHT were used as positive controls. […] All experiments were carried out in triplicate.

[2] = tested on: FeSO4/H2O2-stimulated lipid peroxidation (MDA production) in rat tissue homogenates; assay: FeSO4/H2O2-stimulated lipid peroxidation (MDA production, TBARS) in rat tissue homogenates; type: biochemical; details: 200 μg/mL, mean ± SE, n=3; for Inhibition (%) Brain: rat brain homogenate; for Inhibition (%) Heart: rat heart homogenate; for Inhibition (%) Liver: rat liver homogenate
Experimental: During aerobic incubation of the tissue homogenates, MDA released reacts with thiobarbituric acid (TBA) to give a pink colour. The capability of the samples to inhibit MDA formation is used as a measure of their antioxidant activity. […] The results were expressed as nanomoles of MDA equivalents per milligram of protein of rat (brain, heart and liver) homogenates. All measurements were done in triplicate. The capability to inhibit MDA formation was calculated using the following equation: Inhibition effects (%)=1-MDA in tissue homogenate with test extracts/MDA in tissue homogenate without test extracts×100

Row | SMILES | DPPH % inhibition [1] | Inhibition (%) Brain [2] | Inhibition (%) Heart [2] | Inhibition (%) Liver [2]
1 | Cc1c(C)c2c(c(C)c1O)CC[C@@](C)(CCC[C@H](C)CCC[C@H](C)CCCC(C)C)O2 (racemic) [DL-α-tocopherol] | 66.5 ± 2.75% | 62.90 ± 2.18% | 58.70 ± 1.80% | 71.10 ± 2.25%
2 | Cc1cc(C(C)(C)C)c(O)c(C(C)(C)C)c1 [BHT, butylated hydroxytoluene] | 55.3 ± 1.50% | 52.48 ± 1.72% | 43.23 ± 1.65% | 53.20 ± 1.65%
